{
  "source": "patent US20070123514A1",
  "about": "“Methods of modulating neurotrophin-mediated activity” (PainCeptor Pharma Corporation, priority 2005, published 2007)",
  "key": {"Male Sprague-Dawley rats [1]": {"system": "Male Sprague-Dawley rats", "assay": "Formalin model of acute tonic pain", "assay_type": "in vivo, rat", "procedure": "Male Sprague-Dawley rats were given a subcutaneous injection of 50 μl of 2.5% formalin into the plantar surface of one hindpaw using a 27 gauge syringe needle, and nociceptive responses were measured for the next 60 min. Compound or vehicle was administered (ip. or s.c.) 15-45 minutes prior to the formalin injection. A nociceptive score was determined for each 5 min block by measuring the amount of time spent in each of four behavioral categories: 0, the injected hindpaw is indistinguishable from that of the contralateral paw; 1, the injected paw has little or no weight placed on it; 2, the injected paw is elevated and is not in contact with any surface; 3, the injected paw is licked, bitten, or shaken. A weighted nociceptive score, ranging from 0 to 3 was calculated by multiplying the time spent in each category by the category weight, summing these products, and dividing by the total time for each 5 min block of time (Coderre et al., Pain 1993; 54: 43). On the basis of the resulting response patterns, 2 phases of nociceptive behaviour were identified and scored: first phase (P1; 0-5 min) and second phase (P2; 11-40 min).\n(§1) Statistical analysis was performed using Prism™ 4.01 software package (GraphPad, San Diego, Calif., USA). The difference in response levels between treatment groups and control vehicle group was analyzed using an ANOVA followed by Bonferroni's method for post-hoc pair-wise comparisons. A p value <0.05 was considered to be significant.\nAnimals were treated with vehicle (VEH) or Compound 5 (50 mg/kg i.p.; CMP) 10-20 minutes before the intraplantar injection of 2.5% formalin, as described above."}, "Male Sprague-Dawley rats [2]": {"system": "Male Sprague-Dawley rats", "assay": "Seltzer or Partial Nerve Ligation (PNL) model of neuropathic pain, mechanical allodynia", "assay_type": "in vivo, rat", "details": "25 mg/kg i.p., 90 min post-treatment", "description": "The Partial Nerve Ligation (PNL) model (Seltzer et al., Pain 1990; 43:205) was used to induce chronic neuropathic pain. Male Sprague-Dawley rats were anesthetized with isoflurane, and injury to the sciatic nerve was achieved by tying a tight ligature around ⅓ to ½ of the sciatic nerve just proximal to the nerve's trifurcation in the mid-thigh. Animals develop thermal and mechanical hyperalgesia and allodynia, as well as a long-lasting spontaneous pain or dysesthesia after the nerve injury.\nMechanical allodynia testing: Pre- and post-injury baselines as well as post-treatment values (vehicle or compound-treated animals) for mechanical allodynia were evaluated using Von Frey filaments (Stoelting, Wood Dale, Ill., USA) with varying stiffness. […] The mean and standard error of the mean (SEM) were determined for each paw in each treatment group (ipsilateral/injured paw and contralateral/non-injured paw). […] Effects of compounds were evaluated two weeks after the injury. Compound or vehicle was administered (i.p. or s.c.) and effects on mechanical allodynia were measured at different time points after dosing (e.g., 30, 60 and 90 min.).\nData analysis: Statistical analyses were conducted using Prism™ 4.01 (GraphPad, San Diego, Calif., USA). Mechanical hypersensitivity of the injured paw was determined by comparing contralateral to ipsilateral paw values within the vehicle group at each time point. […]"}, "[3]": {"system": "NGF-induced neurite outgrowth, PC12 cells", "assay": "NGF-induced neurite outgrowth of PC12 cells", "assay_type": "cell-based, rat", "details": "25 μM compound, 5 ng/ml NGF, mean±SEM, n=8; no inhibition=100%, maximal inhibition=0%", "procedure": "This assay was run as a further functional marker of NGF antagonism and takes advantage of the differentiation of PC12 cells (neurite outgrowth) induced by NGF. Cultures of PC12 cells were grown on Terasaki plates pre-coated with poly-D-lysine. Cells were exposed to NGF (1-50 (preferably 5) ng/ml) to induce neurite outgrowth as described elsewhere [L A Greene & A S Tischler, Establishment of a noradrenergic clonal line of rat adrenal pheochromocytoma cells which respond to nerve growth factor, Proc Natl Acad Sci USA. 1976 July; 73(7): 2424-2428]. In addition to NGF, cells were exposed to varying concentration of the compounds or vehicle. Following 4 days of exposure to NGF in the presence or absence of compound, neurite outgrowth was quantified. A neurite was scored if its caliber from origin to terminal was approximately the same and the length was equal to or greater than 1.5 the cell body diameter. The number of neurite bearing cells per total number of viable cells was calculated for each condition; the number of cells with neurites in the presence of NGF (without compound exposure) was considered to represent maximal (100%) outgrowth, to which the inhibitory effect of compounds of the invention on NGF-induced outgrowth was compared."}, "Mice": {"system": "Mice", "assay": "Writhing test (acetic acid abdominal contraction test)", "assay_type": "in vivo, mouse", "procedure": "The acetic acid abdominal contraction test (Martinez et al., Pain 1999; 81: 179) was used to determine the efficacy of different compounds in a model of acute visceral chemical nociception. […] Compound or vehicle was administered (i.p. or s.c.) 15-45 minutes prior to the acetic acid injection. Each episode of writhing is characterized by a lengthwise stretching of the torso with a concomitant arching of the back.\nas §1, with “significant” for “significant.”\nAnimals were treated with vehicle (VEH) or Compound 5 (100 mg/kg i.p.; CMP) 10-20 minutes before the intraperitoneal injection of acetic acid, as described above."}},
  "note": "“Also recorded” adds a separate entry of the source.",
  "data": [
    {"smiles": "O=C(O)c1ccc(Cl)c(N2C(=O)c3cccc4cc([N+](=O)[O-])cc(c34)C2=O)c1", "note": "[Compound 5, 4-Chloro-3-(5-nitro-1,3-dioxo-1H,3H-benzo[de]isoquinolin-2-yl)-benzoic acid]", "values": [
      {"measurement": "formalin-induced spontaneous responses, Phase I", "setting": "Male Sprague-Dawley rats [1]; 50 mg/kg i.p. 10-20 min before 2.5% formalin, vehicle 148±9, n=8", "result": "59±15"},
      {"measurement": "formalin-induced spontaneous responses, Phase II", "setting": "Male Sprague-Dawley rats [1]; 50 mg/kg i.p. 10-20 min before 2.5% formalin, vehicle 180±6, n=8", "result": "61±19"},
      {"measurement": "antinociceptive effect in the Formalin Test", "setting": "Male Sprague-Dawley rats [1]; 50 mg/kg i.p., result in words, p<0.001 vs vehicle, 50 mg/kg", "result": "significant antinociceptive effects"},
      {"measurement": "antinociceptive effect / reversal of mechanical allodynia in partial nerve ligation model", "setting": "Male Sprague-Dawley rats [2]; result in words, 25 mg/kg", "result": "significant reversal of the mechanical allodynia; also recorded: antinociceptive effects"},
      {"measurement": "mechanical allodynia, Von Frey response threshold of injured paw", "setting": "Male Sprague-Dawley rats [2]; vehicle 2.17±0.19 g, n=7", "result": "5.14 ± 0.36", "unit": "g"},
      {"measurement": "NGF-induced neurite outgrowth, % of NGF-only control", "setting": "[3]", "result": "65%±17%"},
      {"measurement": "chemically-induced abdominal contractions (number in 30 minutes)", "setting": "Mice; 100 mg/kg i.p. 10-20 min before acetic acid, vehicle 58±3, n=6", "result": "14±6"},
      {"measurement": "antinociceptive effect in the Writhing Test", "setting": "Mice; 100 mg/kg i.p., result in words, p<0.001 vs vehicle, 100 mg/kg", "result": "significant antinociceptive effects"}
    ]}
  ]
}
